The text below walks through data of patent publication US20110082329A1, “Modification of Sperm Motility and Its Storage Shelf Time” (priority 2008, published 2011).

Assay [1] concerns sea urchins (Lytechinus pictus) sperms. The assay is described as follows: Sea urchin sperm motility by video microscopy / CASA. The assay is classed as cell-based.
Assay [2] shares this test system. The description is as above. Type of assay: cell-based. To be noted: control = 100%. Here is the method:
Sperms originating from ripe sea urchins (Lytechinus pictus) showing genetic and functional similarity to human and animal sperms are used (R. Felix: Reproduction 129, 251-262 (2005).
(§1) Animals were washed by sequential immersion into 100 ml cold (approximately 5° C.) sperm storage buffer (SSB) pH 6.0. Used SSB composition: 50 mmol/L KCl, 5.0 mmol/L N-tris(hydroxymethyl)methyl-3-aminopropanesulphonic acid (TAPS), 425 mmol/L NaCl, 27 mmol/L MgCl2, 29 mmol/L MgSO4, 10 mmol/L CaCl2 and 2.4 mmol/L NaHCO3. Shedding of gametes was induced by intracoelomic injection of 2.0 ml cold 0.5 mol/L KCl through several sites on the peristomial membrane of the oral side. Sperm were collected by inverting male sea urchins over beakers containing approximately 100 ml cold MES sperm storage buffer (MSSB) pH 6.0. Used MSSB composition: 50 mmol/L KCl, 5.0 mM 2-[N-morpholino]ethanesulphonic acid (MES), 5.0 mmol/L TAPS, 425 mmol/L NaCl, 27 mmol/L MgCl2, 29 mmol/L MgSO4, 10 mmol/L CaCl2 and 2.4 mmol/L NaHCO3. A pool of sperm from several animals was made to minimize individual variations. Sperms were incubated in room temperature for 20 min. in 0.1-10 ml fractions diluted with 0.1-1000 ml activation buffer (ASW) pH 8.3. ASW composition: 50 mmol/L KCl, 5.0 mmol/L TAPS, 425 mmol/L NaCl, 27 mmol/L MgCl2, 29 mmol/L MgSO4, 10 mmol/L CaCl2, 2.4 mmol/L NaHCO3 and 1.0 mg/ml bovine serum albumin (BSA). The activation buffer contains the appropriate metal ions in a given concentration. […] Metal ions were used as Cl^− salts. Video microscopy was performed at room temperature (22° C.) using a Nikon Diaphot inverted microscope with 20× BM phase objective and 1× video adapter connected to a Dage CCD72 camera. […] The video signal was sent via a video time clock to a Panasonic VHS video recorder. Motility was recorded on multiple viewing fields for 15 sec per field until the recorded total sperm number reached 400. Video tapes were analyzed using CellTrack system. Measurements were carried out in triplicates. Sperm motility is expressed in %, where control values represent 100% (Bracho et al.: “A Method for Preparation, Storage and Activation of Large Populations of Immotile Sea Urchin Sperm”, BBRC 237, 59-62 (1997)).
(§2) Measurements are carried out using CASA (Computer Assisted Sperm Analysis) method within 12 hours following sperm collection or ejaculation.

Assay [3] concerns human sperm from ejaculates of healthy donors. The assay can be described thus: Human sperm motility by video microscopy / CASA. Type of assay: cell-based. To be noted: control = 100%. The procedure: as §1
Sperms originating from ejaculates (2.0-5.0 ml) of healthy donors are diluted with 2.0-1000 ml cold MSSB buffer following liquidification and homogenized without modification of motility. From this point, sample handling and motility measurement is carried out as described in example#1.
as §2

Assay [4] relates to sea urchin sperm. The assay is described as follows: Sea urchin sperm motility time course: storage in high Ni^2+, then 100-fold dilution. The assay is classed as cell-based, Lytechinus pictus. The conditions noted are these: time point 0 = 100%. The procedure: as §1
a) Preparations of sea urchin sperm are produced as described in example 1. Motility measurements are carried out in predetermined time points as described in example#1 starting from time point 0. The activation buffer at time point 0 is supplemented with 20 mmol/L Ni^2+ as NiCl2. After 4 hours, sperm suspensions are diluted 100-fold with activation buffer, achieving 200 μmol/L final Ni^2+ concentration. Measurements of motility are carried out further. Sperm motility is expressed in %, where control values at time point 0 represent 100%.

With `[Zn+2]` [Zn^2+], the “motility (%)” value in assay [1] (16 μmol/L Zn^2+, control printed as 64.3) worked out at 51.0%.
Take `[Cd+2]` [Cd^2+]: in assay [1] (3.5 μmol/L Cd^2+, control printed as 64.0), the “motility (%)” value is listed as 49.1%.
For the compound `[Ni+2]` [Ni^2+], the “motility (%)” value in assay [2] (1 μmol/L metal ion) was 111.4%; in assay [2] (10 μmol/L metal ion), 127.3%; in assay [2] (100 μmol/L metal ion), 132.0%; in assay [2] (1 mmol/L metal ion) it was 98.6%; in assay [2] (10 mmol/L metal ion), 85.2%; in assay [3] (1 μmol/L metal ion) it was 105.7%. The “motility (%)” value in assay [3] (10 μmol/L metal ion) came to 126.9%; in assay [3] (100 μmol/L metal ion), 129.5%; in assay [3] (1 mmol/L metal ion) it was 93.2%; in assay [3] (10 mmol/L metal ion), 88.9%; in assay [4] (time 0:20, 20 mmol/L Ni^2+), 99.0%; in assay [4] (time 1:00, 20 mmol/L Ni^2+) it was 85.7%. Besides, the “motility (%)” value is listed as 86.8% in assay [4] (time 2:00, 20 mmol/L Ni^2+); 81.6% in assay [4] (time 3:00, 20 mmol/L Ni^2+); 76.3% in assay [4] (time 4:00, 20 mmol/L Ni^2+); 102.6% in assay [4] (time 4:20, after 100-fold dilution at 4 hours to 200 μmol/L Ni^2+); 119.0% in assay [4] (time 5:00, after 100-fold dilution at 4 hours to 200 μmol/L Ni^2+); 123.5% in assay [4] (time 6:00, after 100-fold dilution at 4 hours to 200 μmol/L Ni^2+). Moreover, the “motility (%)” value was 123.0% in assay [4] (time 7:00, after 100-fold dilution at 4 hours to 200 μmol/L Ni^2+) and 120.6% in assay [4] (time 8:00, after 100-fold dilution at 4 hours to 200 μmol/L Ni^2+).
Turning to `[Co+2]` [Co^2+], the “motility (%)” value in assay [2] (1 μmol/L metal ion) stood at 108.6%; in assay [2] (10 μmol/L metal ion), 118.2%; in assay [2] (100 μmol/L metal ion), 127.5%; in assay [2] (1 mmol/L metal ion), 101.1%; in assay [2] (10 mmol/L metal ion), 92.9%; in assay [3] (1 μmol/L metal ion), 106.2%. Moreover, the “motility (%)” value in assay [3] (10 μmol/L metal ion) amounted to 112.7%; in assay [3] (100 μmol/L metal ion) it was 122.5%; in assay [3] (1 mmol/L metal ion), 98.2%; in assay [3] (10 mmol/L metal ion) it was 91.0%.
